From the OligoGym collection come the findings set out here.

Values joined by “and” are separate entries in the source; they are usually repeats but may differ in a detail not shown here. Equal values may be shown once. After the bases stand the sugars from the 5' end (letter, count) and the backbone: PS all phosphorothioate, else s phosphorothioate and o phosphodiester by linkage. Methylation of C is not given here. e = 2'-O-(2-methoxyethyl) (MOE); k = constrained ethyl (cEt); d = 2'-deoxy (DNA)

In the data set the target is KRAS. As to conditions: ASO.

In turn, “AGGAGTCTTTATAGTA (sugars kdddddddddkekeke, PS)” yielded a target mRNA inhibition (A431, 2 µM) of 24%.
On the same count and under the same terms, next, GCATGTAAATATAGCC (sugars k3 d10 k3, PS): 11%; GTATTAACACAGAAGT (sugars k3 d10 k3, PS): 0%; “ACCAGTGTTAAGAGAA (sugars kkkdddddddddkeke, PS)”: 40%.
For TTGTACTAGTATGCCT (sugars k3 d10 k3, PS), the target mRNA inhibition (A431, 2 µM) was 55%.
On the same count and under the same terms, next, ACTTGAAAAGTGTTTA (sugars k3 d10 k3, PS): 16%; “CCATTCAAAGTTCACA (sugars kkdddddddddkekek, PS)”: 36%.
Take “CTTGATTTGTCAGCAG (sugars kkkddddddddkekek, PS)”: the target mRNA inhibition (A431, 2 µM) came out at 41%.
Regarding “TGATTTGTCAGCAGGA (sugars kkddddddddkekekk, PS)”, the target mRNA inhibition (A431, 2 µM) was 32% and 17%.
On the same count and under the same terms, next, GCATTTCTGATGTGAC (sugars k3 d10 k3, PS): 24%.
Consider “TGGTGTAACATAGGTT (sugars k3 d9 k3 e1, PS)”, for which the target mRNA inhibition by setting is: (A431, 0.185 µM) 21%; (A431, 0.556 µM) 46%; (A431, 1.667 µM) 69%; (A431, 2 µM) 56%; (A431, 5 µM) 80%.
Turning to TCTCCATTAGTAAATA (sugars k3 d10 k3, PS), the target mRNA inhibition (A431, 2 µM) turned out to be 13%.
Same read-out and setting: next, “TTAGTGATTAGGTCAA (sugars kkddddddddkekekk, PS)”: 33%.
On the same count and under the same terms, next, ACTTGTACTAGTATGC (sugars k3 d10 k3, PS): 51%.
Consider TCTTGATTTGTCAGCA (sugars k3 d10 k3, PS), for which the target mRNA inhibition runs as follows: (A431, 0.185 µM) 13% and 0%; (A431, 0.556 µM) 22% and 21%; (A431, 1.667 µM) 60% and 47%; (A431, 2 µM) 62%; (A431, 5 µM) 75% and 69%.
Take “ACCATTCAAAGTTCAC (sugars kkdddddddddkekek, PS)”: the target mRNA inhibition (A431, 2 µM) came out at 36%.
On to “ATGCTGTGAAACTCTC (sugars kkdddddddddkekek, PS)”, for which the target mRNA inhibition (A431, 2 µM) was determined as 16%.
“GTGTTTATGCAATGTT (sugars kkkdddddddddkeke, PS)”: the target mRNA inhibition is, setting by setting: (A431, 0.185 µM) 30%; (A431, 0.556 µM) 55%; (A431, 1.667 µM) 80%; (A431, 2 µM) 66%; (A431, 5 µM) 85%.
“ATGGTGTAACATAGGT (sugars kddddddddddkekek, PS)” came in with a target mRNA inhibition (A431, 2 µM) of 47%.
Still for that read-out and setting: next, “TTGATTTGTCAGCAGG (sugars kkdddddddddkdkdk, PS)”: 53%; GTTTAAAAAAAAAATT (sugars k3 d10 k3, PS): 2%; AGGCATTGCTAGTTCA (sugars k3 d10 k3, PS): 55%.
On the same count and under the same terms, next, GTTTCACATAGCAATT (sugars k3 d10 k3, PS): 29%.
Still for that read-out and setting: next, CTGTAGTTTCACATAG (sugars k3 d10 k3, PS): 25%.
Turning to CACTTGTACTAGTATG (sugars k3 d10 k3, PS), the target mRNA inhibition (A431, 2 µM) came to 36%.
The same measure, in the same setting: next, “CCAGTGTTAAGAGAAC (sugars k3 d9 k3 e1, PS)”: 55%; TCTATGAAAGCTCAAA (sugars k3 d10 k3, PS): 18%; “CATTCAAAGTTCACAT (sugars kddddddddddkekek, PS)”: 43%.
On the same count and under the same terms, next, TTCATTGTTTAAAAAA (sugars k3 d10 k3, PS): 6%; “GCTGTGAAACTCTCTA (sugars kdddddddddkekeke, PS)”: 2%; “CAGTGTGACTCAGTTA (sugars kkkdddddddddkeke, PS)”: 55%.
“GGTGTAACATAGGTTA (sugars kkddddddddkekekk, PS)” yielded a target mRNA inhibition (A431, 0.185 µM) of 0%; a target mRNA inhibition (A431, 0.556 µM) of 2%; a target mRNA inhibition (A431, 1.667 µM) of 40%; a target mRNA inhibition (A431, 2 µM) of 54%; a target mRNA inhibition (A431, 5 µM) of 58%.
Take TTAATCCATTTATGTG (sugars k3 d10 k3, PS): the target mRNA inhibition (A431, 2 µM) was determined as 34%.
Same read-out and setting: next, “TAGTGATTAGGTCAAA (sugars k3 d9 k3 e1, PS)”: 43%; ATCTTGTTGAGCTATC (sugars k3 d10 k3, PS): 40%; GTTGAGCTATCCAAAC (sugars k3 d10 k3, PS): 2%.
The same measure, in the same setting: next, ATTAGTCTCCATTAGT (sugars k3 d10 k3, PS): 29%.
Take CTTGTACTAGTATGCC (sugars k3 d10 k3, PS): the target mRNA inhibition reads like this: (A431, 0.185 µM) 24% and 13%; (A431, 0.556 µM) 46% and 35%; (A431, 1.667 µM) 67% and 52%; (A431, 2 µM) 59%; (A431, 5 µM) 77% and 71%.
Sequence TTCAAAGTTCACATAA (sugars k3 d10 k3, PS) gave a target mRNA inhibition (A431, 2 µM) of 7%.
Still for that read-out and setting: next, AAAAAAATTAATGTCT (sugars k3 d10 k3, PS): 7%; “ATGGTGTAACATAGGT (sugars kkkddddddddkekek, PS)”: 43%.
For the setting “A431, 2 µM”, TAATTAATCCATTTAT (sugars k3 d10 k3, PS) yielded a target mRNA inhibition of 0%.
GTTCTGTCTATTCATA (sugars k3 d10 k3, PS) yielded a target mRNA inhibition (A431, 2 µM) of 31%.
Where the note is “A431, 2 µM”, GTAAATATAGCCCCAA (sugars k3 d10 k3, PS) displayed a target mRNA inhibition of 29%.
Still for that read-out and setting: next, TCCAGTATTAACACAG (sugars k3 d10 k3, PS): 34%; “AGGAGTCTTTATAGTA (sugars kkkdddddddddkeke, PS)”: 31%.
On the same count and under the same terms, next, TGGTGAATATCTTCAA (sugars k3 d10 k3, PS): 9%; GGCATTTCTGATGTGA (sugars k3 d10 k3, PS): 8%; “ACCAGTGTTAAGAGAA (sugars kkkddddddddkekek, PS)”: 51%.
Still for that read-out and setting: next, CTTGTTGAGCTATCCA (sugars k3 d10 k3, PS): 63%; TTGAAAAGTGTTTATG (sugars k3 d10 k3, PS): 26%.
In turn, “TGGTGTAACATAGGTT (sugars kkdddddddddkdkdk, PS)” registered a target mRNA inhibition (A431, 0.185 µM) of 13%; a target mRNA inhibition (A431, 0.556 µM) of 33%; a target mRNA inhibition (A431, 1.667 µM) of 63%; a target mRNA inhibition (A431, 2 µM) of 57%; a target mRNA inhibition (A431, 5 µM) of 75%.
Under “A431, 2 µM”, “GTGTGACTCAGTTAAA (sugars kkddddddddkekekk, PS)” returned a target mRNA inhibition of 38%.
ATGCTAATAATTTAGT (sugars k3 d10 k3, PS) yielded a target mRNA inhibition (A431, 2 µM) of 11%.
Consider “AGATTGTGCTGAGCTT (sugars kkdddddddddkekek, PS)”, for which, under “A431, 2 µM”, the target mRNA inhibition stood at 38%.
The same measure, in the same setting: next, GATGTAGGGCATTTCT (sugars k3 d10 k3, PS): 0%.
Take AATGGTGAATATCTTC (sugars k3 d10 k3, PS): the target mRNA inhibition by setting is: (A431, 0.037 µM) 58%; (A431, 2 µM) 50%; (A431, 5 µM) 97% and 90%; (NCI-H460, 0.037 µM) 33.3%.
Take “GTGTTTATGCAATGTT (sugars kkddddddddkekekk, PS)”: the target mRNA inhibition (A431, 2 µM) came out at 9%.
On the same count and under the same terms, next, GTAGTTTCACATAGCA (sugars k3 d10 k3, PS): 46%; ATTAGGAGTCTTTATA (sugars k3 d10 k3, PS): 20%.
In the case of TCCATTTATGTGACTA (sugars k3 d10 k3, PS), the target mRNA inhibition runs as follows: (A431, 0.185 µM) 29%; (A431, 0.556 µM) 59%; (A431, 1.667 µM) 65%; (A431, 5 µM) 78%.
Take ATGGTGTAACATAGGT (sugars k3 d10 k3, PS): the target mRNA inhibition (A431, 0.185 µM) is 17%; the target mRNA inhibition (A431, 0.556 µM) was 36%; the target mRNA inhibition (A431, 1.667 µM) amounted to 59%; the target mRNA inhibition (A431, 2 µM) is 59% and 47% and 52%; the target mRNA inhibition (A431, 5 µM) was determined as 75%.
Regarding TTTATGCAATGTTAAT (sugars k3 d10 k3, PS), the target mRNA inhibition (A431, 2 µM) was 34%.
Still for that read-out and setting: next, CATTACTTTTTGACAA (sugars k3 d10 k3, PS): 8%; “GGAGTCTTTATAGTAA (sugars kkdddddddddkdkdk, PS)”: 29%; “GTTTATGCAATGTTAA (sugars kdddddddddkekeke, PS)”: 31%.
Same read-out and setting: next, “CCAGTGTTAAGAGAAC (sugars kkdddddddddkekek, PS)”: 43%; CAGATTGTGCTGAGCT (sugars k3 d10 k3, PS): 29%.
Still for that read-out and setting: next, CATTCAAAGTTCACAT (sugars k3 d10 k3, PS): 2%.
“AGATTGTGCTGAGCTT (sugars kkkddddddddkekek, PS)” gave a target mRNA inhibition (A431, 2 µM) of 26%.
Same read-out and setting: next, “GGAGTCTTTATAGTAA (sugars kkdddddddddkekek, PS)”: 21%.
The same measure, in the same setting: next, AAATTAATGTCTTGGC (sugars k3 d10 k3, PS): 47%; CTGTCTATTCATACCA (sugars k3 d10 k3, PS): 34%.
“CAGTGTGACTCAGTTA (sugars kddddddddddkekek, PS)”: the target mRNA inhibition (A431, 2 µM) came out at 32%.
With “CCAGTGTTAAGAGAAC (sugars kkdddddddddkdkdk, PS)”, the target mRNA inhibition (A431, 2 µM) stood at 38%.
On the same count and under the same terms, next, AACAAATGCTAATAAT (sugars k3 d10 k3, PS): 0%; GGAGATATCCACAGCA (sugars k3 d10 k3, PS): 0%.
ATGCTGTGAAACTCTC (sugars k3 d10 k3, PS): the target mRNA inhibition (A431, 0.185 µM) was determined as 26%; the target mRNA inhibition (A431, 0.556 µM) came out at 42%; the target mRNA inhibition (A431, 1.667 µM) turned out to be 47%; the target mRNA inhibition (A431, 2 µM) is 58% and 52% and 39%; the target mRNA inhibition (A431, 5 µM) came to 72%.
